Data on three molecules can be found in patent publication US12226386B2, “Compositions and methods for treating biofilms” (The Regents of the University of California, priority 2018, dated 2025).

Like-named read-outs stand apart in the source and are kept apart here. Where only a bound is given, the exact number is not on record here.

One assay deals with C. albicans biofilms. The experiment in a line: in vitro sustained inhibition biofilm assay, fungal. Format: cell-based, Candida albicans. The conditions noted are these: 1% amino acid, p<0.001. The procedure:
Two types of biofilm assays were performed: a sustained inhibition assay and a disruption assay.
For fungal biofilm assays, all solutions were prepared in RPMI 1640 medium. All bacterial biofilm solutions were prepared in Tryptic Soy Broth (TSB), supplemented with 1% glucose (henceforth referred to as TSB-G). All subsequent procedures were performed in a manner that maintained sterility. A solution of each amino acid to be tested was prepared in weight to volume concentrations ranging from 0.1-5.0%. Amino acids were also tested in combinations. Compound solutions were homogenized with gentle agitation in the dark (4° C., 24 hours) before use.
Fungal strains were streaked on Yeast Peptone Dextrose (YPD) agar plates and incubated at 30° C. for 48 hours. A single colony from each strain to be tested was inoculated into YPD broth and grown for 12 hours, at 30° C., shaking at 225 rpm. For the fungal biofilm inhibition assay, 1 μl of saturated overnight cell culture was added to either 80 μL of RPMI-1640 or RPMI-1640 supplemented with the amino acid compound solution to be tested, in a 384-well plate. […] Media was carefully aspirated and the biofilm was measured by optical density at 600 nm. Twelve replicates were performed for each tested condition and the reported values are normalized to the control (RPMI-1640 media only). For the fungal biofilm disruption assays, 80 μL of RPMI-1640 was added to the plate, along with 1 μL of overnight cell culture. […] Loosely bound cells were washed once with PBS and 80 μL of RPMI-1640 was added to the plate. […] Media was carefully aspirated from the mature biofilm and 80 μL of RPMI-1640, or RPMI-1640 supplemented with the amino acid compound solution to be tested, was gently added to the plate. […] Media was carefully aspirated and the biofilm was measured by optical density at 600 nm. Twelve replicates were performed for each tested condition and the reported values are normalized to the control (RPMI-1640 media only).
The plate was further incubated for 24 hours at 37° C. with shaking (350 rpm). Media was carefully aspirated and the biofilm was measured by optical density at 600 nm.

Assay [1] relates to S. aureus (MRSA) biofilms. Briefly: in vitro biofilm disruption assay, bacterial. The conditions noted are these: Staphylococcus aureus, 24 h. It is filed as cell-based.
[2] abbreviates: disruption, S. aureus, 1% amino acid, p<0.001, read-out: Reduce B Biofilm.

On to `N[C@@H](CCC(=O)O)C(=O)O` [Glutamic Acid, L-glutamic acid], for which the “Reduce F Biofilm” value in the assay with C. albicans biofilms was “●● (two dots [i.e. ●●] signifies major effect (greater than about 30% change))”. Also, in assay [1] (read-out: Reduce B Biofilm), the inhibition at 1 % is above 30%.

With `N[C@@H](CC(=O)O)C(=O)O` [Aspartic Acid, L-aspartic acid], in the assay with C. albicans biofilms, the “Reduce F Biofilm” value is “●● (two dots [i.e. ●●] signifies major effect (greater than about 30% change))”. In assay [1] (setting [2]), the inhibition at 1 % is above 30%.

For the molecule `N[C@@H](CS)C(=O)O` [Cysteine, L-cysteine], the “Reduce F Biofilm” value in the assay on C. albicans biofilms is “●● (two dots [i.e. ●●] signifies major effect (greater than about 30% change))”. Further, the inhibition at 1 % in assay [1] (setting [2]) was above 30%.
